Data from patent publication US8735391B2, “Synthesis of functionalized octahydro-isoquinolin-1-one-8-carboxamides, octahydro-isoquinolin-1-one-8-carboxylic esters and analogs, and therapeutic methods” (University of Kansas, priority 2008, dated 2014).

Tests used:
KOR [1] = target: T1, KOR (Homo sapiens, UniProt P41145); experiment: Opioid secondary binding, KOR (Tables 4, 5, 8, 9); details: Opioid secondary binding activity for Formula 10 analogs; read-out: KOR, Ki
KOR [2] = target: T1, KOR; experiment: [35S]GTPγS binding functional agonist assay on membranes of CHO cells expressing hKOR (reference agonist U69593); format: biochemical; set-up: expressed in transfected cells; host or cells: CHO cells, stably transfected; crude membrane fractions; details: for KOR agonist (average percent efficacy relative to cognate agonist): test compound at 10 micromolar, N=4, reference agonist = 100%, CHO-cell line expressing hKOR; for Emax values relative to U69593: [35S]GTPγS data-fit top relative to reference agonist U69593
Description: The compounds prepared herein were tested for bioactivity with opioid receptors. Agonist assays: Data represent the percent efficacy (relative to cognate agonist) of the test compound at 10 micromolar. The response to a saturating concentration of a reference antagonist or to vehicle (usually none or negligible) is set to 0%. […] The response inhibition elicited by a saturating concentration of reference antagonist is set to 100%; the response inhibition (usually none or negligible) elicited by vehicle is set to 0%. The following tables provide data related to the bioactivity for opioid receptors of the compounds described herein.
Table 6 provides data that represent the average percent efficacy (N=4; relative to cognate agonist) of the test compound at 10 micromolar concentration. The response to a saturating concentration of cognate/reference agonist is set to 100%; the response to a saturating concentration of a reference antagonist or to vehicle (usually none or negligible) is set to 0%. All functional assays are performed on stably transfected CHO-cell lines expressing hKOR, hMOR or hDOR.
(§1) Serial dilutions of the test and reference compounds are made in binding buffer at 2× assay concentration (final assay concentrations ranging from 0.1 nM to 10 μM). Crude membrane fractions (1.8 to 3.5 cm2/well) (prepared from 10-cm plates by harvesting PBS-rinsed monolayers, resuspending and lysing in chilled, hypotonic 50 mM Tris-HCl, pH 7.4, centrifuging at 20,000×g, decanting the supernatant and storing at −80 degrees centigrade; typically, one 10-cm plate provides sufficient material for 24 wells) are resuspended in 1.2 ml of assay buffer containing 20 μM GDP, wheat germ agglutinin (WGA)-coated scintillation proximity beads (2.4 mg), and [35S]GTPγS (300 pM final). The suspension is then added (50 μl/well) to 50 μl of the 2× test or reference compounds (each concentration assayed in triplicate) in flexible transparent PET 96-well plates. The reaction plate is sealed and incubated for 90 min at room temperature, then centrifuged for 5 min at 216×g, and finally loaded into a Wallac MicroBeta TriLux counter. Non-specific [35S]GTPγS binding is assessed at the maximum concentration of reference agonist in the presence of 10 μM antagonist. The background signal is measured at 10 μM reference agonist in the presence of 10 μM unlabeled GTPγS. Raw data (dpm) representing total [35S]GTPγS binding (i.e., specific+non-specific binding) are calculated as a percentage of the maximum response by the reference agonist (in this case U69593).
as §1, with “GTPγS.” for “GTPγS. Raw data (dpm) representing total [35S]GTPγS binding (i.e., specific+non-specific binding) are calculated as a percentage of the maximum response by the reference agonist (in this case U69593).”

T1 sequence (P41145 whole entry): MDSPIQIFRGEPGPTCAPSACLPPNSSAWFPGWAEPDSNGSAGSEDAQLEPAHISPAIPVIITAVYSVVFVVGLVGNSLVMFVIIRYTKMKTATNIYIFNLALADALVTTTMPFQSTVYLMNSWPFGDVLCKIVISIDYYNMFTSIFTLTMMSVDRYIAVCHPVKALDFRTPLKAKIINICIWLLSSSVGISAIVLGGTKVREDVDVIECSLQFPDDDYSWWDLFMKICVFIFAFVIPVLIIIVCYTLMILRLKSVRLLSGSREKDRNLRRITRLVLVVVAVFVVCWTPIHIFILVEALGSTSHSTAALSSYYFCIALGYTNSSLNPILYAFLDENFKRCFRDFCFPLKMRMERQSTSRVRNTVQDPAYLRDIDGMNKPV

Row | SMILES | Ki (KOR [1]) [nM] | KOR agonist (average percent efficacy relative to cognate agonist) (KOR [2]) [%] | Emax values relative to U69593 (KOR [2]) [%]
1 | COc1ccc(CNC(=O)[C@@H]2CC=C[C@@H]3CCN(Cc4ccccc4)C(=O)[C@@H]32)cc1 (racemic) [compound 8924] | 3730 | 18.8 | –
2 | CCCCN1CC[C@H]2C=CC[C@@H](C(=O)NCc3ccc(OC)cc3)[C@H]2C1=O (racemic) [compound 8927] | – | 8.7 | –
3 | O=C(NCc1ccc(Cl)c(C(F)(F)F)c1)[C@@H]1CC=C[C@@H]2CCN(c3ccccc3)C(=O)[C@@H]21 (racemic) [compound 11862] | 98 | – | 81
4 | Cc1cc(NC(=O)[C@@H]2CC=C[C@@H]3CCN(c4ccccc4)C(=O)[C@@H]32)ccc1Cl (racemic) [compound 11866] | 33.5 | – | 123
5 | O=C([C@@H]1CC=C[C@@H]2CCN(C3CCCCC3)C(=O)[C@@H]21)N1CCOCC1 (racemic) [compound 8910] | 2950 | 42.7 | –
6 | O=C(Nc1ccc(Cl)c(C(F)(F)F)c1)[C@@H]1CC=C[C@@H]2CCN(Cc3ccc(Cl)c(Cl)c3)C(=O)[C@@H]21 (racemic) [compound 8957] | – | 33.1 | –
7 | O=C(Nc1ccc(Cl)c(C(F)(F)F)c1)[C@@H]1CC=C[C@@H]2CCN(C3CC3)C(=O)[C@@H]21 (racemic) [compound 8954] | 493 | 66.4 | –
8 | COc1ccc(CNC(=O)[C@@H]2CC=C[C@@H]3CCN(C4CC4)C(=O)[C@@H]32)cc1 (racemic) [compound 8925] | – | 5.4 | –
9 | COc1ccc(CNC(=O)[C@@H]2CC=C[C@@H]3CCN(Cc4ccc(OC)c(OC)c4)C(=O)[C@@H]32)cc1 (racemic) [compound 8929] | – | 3.6 | –
10 | COc1ccc(NC(=O)[C@@H]2CC=C[C@@H]3CCN(C4CC4)C(=O)[C@@H]32)cc1 (racemic) [compound 8944] | – | 1 | –
11 | O=C(Nc1ccccc1)[C@@H]1CC=C[C@@H]2CCN(C3CC3)C(=O)[C@@H]21 (racemic) [compound 8938] | 1400 | 21.8 | –
12 | O=C(NC1CCCCC1)[C@@H]1CC=C[C@@H]2CCN(C3CCCCC3)C(=O)[C@@H]21 (racemic) [compound 8922] | 167 | 8 | –
13 | O=C(NC1CCCCC1)[C@@H]1CC=C[C@@H]2CCN(C3CC3)C(=O)[C@@H]21 (racemic) [compound 8921] | – | 4.1 | –
14 | O=C(NCc1cccnc1)[C@@H]1CC=C[C@@H]2CCN(Cc3ccc(Cl)c(Cl)c3)C(=O)[C@@H]21 (racemic) [compound 8932] | 693 | 74.6 | –
15 | O=C(NC1CCCCC1)[C@@H]1CC=C[C@@H]2CCN(Cc3ccccc3)C(=O)[C@@H]21 (racemic) [compound 8920, 2-Benzyl-N-cyclohexyl-1-oxo-1,2,3,4,4a,7,8,8a-octahydroisoquinoline-8-carboxamide] | 298 | 94.2 | –
16 | CCCCN1CC[C@H]2C=CC[C@@H](C(=O)NC3CCCCC3)[C@H]2C1=O (racemic) [compound 8923] | 1030 | 67.6 | –
17 | COc1ccc(CNC(=O)[C@@H]2CC=C[C@@H]3CCN(C4CCCCC4)C(=O)[C@@H]32)cc1 (racemic) [compound 8926] | 2690 | 29 | –
18 | O=C(Nc1ccc(Cl)cc1Cl)[C@@H]1CC=C[C@@H]2CCN(C3CC3)C(=O)[C@@H]21 (racemic) [compound 8948] | – | 29.6 | –

Row | SMILES | Ki (KOR [1]) [nM] | KOR agonist (average percent efficacy relative to cognate agonist) (KOR [2]) [%] | Emax values relative to U69593 (KOR [2]) [%]
19 | O=C(NCCc1ccccc1)[C@@H]1CC=C[C@@H]2CCN(C3CC3)C(=O)[C@@H]21 (racemic) [compound 8917] | – | 6.6 | –
20 | CCCCN1CC[C@H]2C=CC[C@@H](C(=O)Nc3ccc(OC)cc3)[C@H]2C1=O (racemic) [compound 8946] | 5040 | 23.5 | –
21 | O=C([C@@H]1CC=C[C@@H]2CCN(C3CC3)C(=O)[C@@H]21)N1CCN(c2ccccc2)CC1 (racemic) [compound 8913] | 3190 | 27.5 | –
22 | O=C([C@@H]1CC=C[C@@H]2CCN(C3CC3)C(=O)[C@@H]21)N1CCOCC1 (racemic) [compound 8909] | – | 7.8 | –
23 | O=C(Nc1ccc(Cl)cc1C(F)(F)F)[C@@H]1CC=C[C@@H]2CCN(c3ccccc3)C(=O)[C@@H]21 (racemic) [compound 11864] | 68 | – | 119
24 | O=C(Nc1cccc(Cl)c1)[C@@H]1CC=C[C@@H]2CCN(CC3CCCCC3)C(=O)[C@@H]21 (racemic) [compound 11888] | 68 | – | 70
25 | CCCCN1CC[C@H]2C=CC[C@@H](C(=O)NCCc3ccccc3)[C@H]2C1=O (racemic) [compound 8918] | 3270 | 12.6 | –
26 | O=C(Nc1ccc(Cl)cc1Cl)[C@@H]1CC=C[C@@H]2CCN(C3CCCCC3)C(=O)[C@@H]21 (racemic) [compound 8949] | 506 | 67.9 | –
27 | O=C(Nc1ccc(Br)c(C(F)(F)F)c1)[C@@H]1CC=C[C@@H]2CCN(c3ccccc3)C(=O)[C@@H]21 (racemic) [compound 11863] | 12 | – | 95
28 | O=C(Nc1ccc(Cl)cc1Cl)[C@@H]1CC=C[C@@H]2CCN(Cc3ccc(Cl)c(Cl)c3)C(=O)[C@@H]21 (racemic) [compound 8951] | 2440 | 23.2 | –
29 | CCCCN1CC[C@H]2C=CC[C@@H](C(=O)N3CCN(c4ccccc4)CC3)[C@H]2C1=O (racemic) [compound 8914] | – | 9.9 | –
30 | CCCCN1CC[C@H]2C=CC[C@@H](C(=O)N3CCOCC3)[C@H]2C1=O (racemic) [compound 8911] | – | 8.3 | –
31 | O=C(NCc1cccnc1)[C@@H]1CC=C[C@@H]2CCN(C3CCCCC3)C(=O)[C@@H]21 (racemic) [compound 8931] | 552 | 67.7 | –
32 | COc1ccc(NC(=O)[C@@H]2CC=C[C@@H]3CCN(Cc4ccccc4)C(=O)[C@@H]32)cc1 (racemic) [compound 8943] | 883 | 72.9 | –
33 | CCCCNC(=O)[C@@H]1CC=C[C@@H]2CCN(CCCC)C(=O)[C@@H]21 (racemic) [compound 8919] | 2810 | 40.3 | –
34 | O=C(Nc1ccc(Cl)c(C(F)(F)F)c1)[C@@H]1CC=C[C@@H]2CCN(C3CCCCC3)C(=O)[C@@H]21 (racemic) [compound 8955] | 111 | 93.2 | –
35 | O=C(NCc1cccnc1)[C@@H]1CC=C[C@@H]2CCN(C3CC3)C(=O)[C@@H]21 (racemic) [compound 8930] | – | 4 | –
36 | CCCCN1CC[C@H]2C=CC[C@@H](C(=O)Nc3ccc(Cl)cc3Cl)[C@H]2C1=O (racemic) [compound 8950] | 1140 | 72.9 | –
